The text below walks through data of patent US20160158200A1, “Combinations of Hepatitis C Virus Inhibitors” (priority 2013, published 2016).

The structures appear in SMILES notation.

The subject of this assay is HCV genotype-1a variant with glutamine 30 changed to glutamate in the NS5A protein. It is filed as cell-based. Conditions: test compound titrated with BMS-790052 fixed at 200 nM; genotype 1a Q30E replicon. The method in brief: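 Synergy was assessed by combining several fixed amounts of an NS5A-targeting compound with a titration of the second compound of interest.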

Regarding `CC(C)[C@H](NC(=O)C(C)(C)C)c1ncc(-c2ccc3cc4cc(-c5cnc([C@@H](NC(=O)C(C)(C)C)C(C)C)[nH]5)ccc4cc3c2)[nH]1.O=C(O)C(F)(F)F` [Compound B30], the “Fold-Synergistic 1a (Q30E)” value is recorded as >100 fold.

Regarding `CC(C)(C)[C@H](NC(=O)C1CCC(F)(F)CC1)c1nc2ccc(-c3ccc(-c4ccc5nc([C@@H](NC(=O)C6CCC(F)(F)CC6)C(C)(C)C)[nH]c5c4)cc3)cc2[nH]1` [Compound B32], the “Fold-Synergistic 1a (Q30E)” value is >100 fold.

For the molecule `CC(C)(C)C(=O)N[C@H](c1nc2ccc(-c3ccc(-c4ccc5nc([C@@H](NC(=O)C(C)(C)C)C(C)(C)C)[nH]c5c4)cc3)cc2[nH]1)C(C)(C)C.O=C(O)C(F)(F)F` [Compound B33], the “Fold-Synergistic 1a (Q30E)” value was >100 fold.

Regarding `CC(C)(C)[C@H](NC(=O)C1CCC(F)(F)CC1)c1nc2ccc(C#Cc3ccc4nc([C@@H](NC(=O)C5CCC(F)(F)CC5)C(C)(C)C)[nH]c4c3)cc2[nH]1` [Compound B38], the “Fold-Synergistic 1a (Q30E)” value was >100 fold.

For `CC(C)(C)C(=O)N[C@H](c1nc2ccc(C#Cc3ccc4nc([C@@H](NC(=O)C(C)(C)C)C(C)(C)C)[nH]c4c3)cc2[nH]1)C(C)(C)C.O=C(O)C(F)(F)F` [Compound B39], the “Fold-Synergistic 1a (Q30E)” value is given as >100 fold.

On to `CC(C)(C)[C@H](NC(=O)C(C)(C)C1(O)CCC(F)(F)CC1)c1nc2ccc(C#Cc3ccc4nc([C@@H](NC(=O)C(C)(C)C5(O)CCC(F)(F)CC5)C(C)(C)C)[nH]c4c3)cc2[nH]1.O=C(O)C(F)(F)F` [Compound B41A], for which the “Fold-Synergistic 1a (Q30E)” value is given as >100 fold.

`CC(C)(C)[C@H](NC(=O)C1(C2(O)CCC(F)(F)CC2)CC1)c1nc2ccc(C#Cc3ccc4nc([C@@H](NC(=O)C5(C6(O)CCC(F)(F)CC6)CC5)C(C)(C)C)[nH]c4c3)cc2[nH]1.O=C(O)C(F)(F)F` [Compound B41B]: the “Fold-Synergistic 1a (Q30E)” value was >100 fold.

For `CC(C)[C@H](NC(=O)C1CCC(F)(F)CC1)c1nc2ccc(C#Cc3ccc4nc([C@@H](NC(=O)C5CCC(F)(F)CC5)C(C)C)[nH]c4c3)cc2[nH]1.O=C(O)C(F)(F)F` [Compound B42], the “Fold-Synergistic 1a (Q30E)” value was >100 fold.

With `CC(C)[C@H](NC(=O)C(C)(C)C)c1nc2ccc(C#Cc3ccc4nc([C@@H](NC(=O)C(C)(C)C)C(C)C)[nH]c4c3)cc2[nH]1.O=C(O)C(F)(F)F` [Compound B43], the “Fold-Synergistic 1a (Q30E)” value is listed as >100 fold.

Regarding `CC(C)(C)[C@H](NC(=O)C1CCC(F)(F)CC1)c1ncc(-c2ccc(C#Cc3ccc4nc([C@@H](NC(=O)C5CCC(F)(F)CC5)C(C)(C)C)[nH]c4c3)cc2)[nH]1` [Compound B45], the “Fold-Synergistic 1a (Q30E)” value is >100 fold.

Take `CC(C)(C)[C@H](NC(=O)C1CCC(F)(F)CC1)c1nc2ccc(C#CC#Cc3ccc4nc([C@@H](NC(=O)C5CCC(F)(F)CC5)C(C)(C)C)[nH]c4c3)cc2[nH]1` [Compound B46]: the “Fold-Synergistic 1a (Q30E)” value is >100 fold.

Consider `CC(C)(C)[C@H](NC(=O)C(C)(C)C1(O)CCC(F)(F)CC1)c1ncc(-c2ccc(C#Cc3ccc4nc([C@@H](NC(=O)C(C)(C)C5(O)CCC(F)(F)CC5)C(C)(C)C)[nH]c4c3)cc2)[nH]1` [Compound B48A], for which the “Fold-Synergistic 1a (Q30E)” value was >100 fold.

As to `CC(C)(C)[C@H](NC(=O)C1(C2(O)CCC(F)(F)CC2)CC1)c1ncc(-c2ccc(C#Cc3ccc4nc([C@@H](NC(=O)C5(C6(O)CCC(F)(F)CC6)CC5)C(C)(C)C)[nH]c4c3)cc2)[nH]1` [Compound B48B], the “Fold-Synergistic 1a (Q30E)” value was >100 fold.

Turning to `CC(C)[C@H](NC(=O)C1CCC(F)(F)CC1)c1ncc(-c2ccc(C#Cc3ccc4nc([C@@H](NC(=O)C5CCC(F)(F)CC5)C(C)C)[nH]c4c3)cc2)[nH]1` [Compound B51], the “Fold-Synergistic 1a (Q30E)” value is >100 fold.

With `CC(C)[C@H](NC(=O)C1CCC(F)(F)CC1)c1nc2ccc(C#CC#Cc3ccc4nc([C@@H](NC(=O)C5CCC(F)(F)CC5)C(C)C)[nH]c4c3)cc2[nH]1` [Compound B52], the “Fold-Synergistic 1a (Q30E)” value was >100 fold.

For the molecule `CC(C)(C)[C@H](NC(=O)C1CCC(F)(F)CC1)c1ncc(-c2ccc3cc(-c4ccc5nc([C@@H](NC(=O)C6CCC(F)(F)CC6)C(C)(C)C)[nH]c5c4)ccc3c2)[nH]1` [Compound B53], the “Fold-Synergistic 1a (Q30E)” value is >100 fold.

With `CC(C)(C)C(=O)N[C@H](c1ncc(-c2ccc3cc(-c4ccc5nc([C@@H](NC(=O)C(C)(C)C)C(C)(C)C)[nH]c5c4)ccc3c2)[nH]1)C(C)(C)C` [Compound B54], the “Fold-Synergistic 1a (Q30E)” value is >100 fold.

For `CC(C)[C@H](NC(=O)C1CCC(F)(F)CC1)c1ncc(-c2ccc3cc(-c4ccc5nc([C@@H](NC(=O)C6CCC(F)(F)CC6)C(C)C)[nH]c5c4)ccc3c2)[nH]1` [Compound B55], the “Fold-Synergistic 1a (Q30E)” value is listed as >100 fold.

In the case of `CC(C)(C)[C@H](NC(=O)C1CCC(F)(F)CC1)c1ncc(-c2ccc(-c3ccc(-c4ccc5nc([C@@H](NC(=O)C6CCC(F)(F)CC6)C(C)(C)C)[nH]c5c4)cc3)cc2)[nH]1` [Compound B56], the “Fold-Synergistic 1a (Q30E)” value is >100 fold.

Regarding `CC(C)(C)[C@H](NC(=O)C1CCC(F)(F)CC1)c1ncc(-c2ccc(-c3ccc(-c4cnc([C@@H](NC(=O)C5CCC(F)(F)CC5)C(C)(C)C)[nH]4)s3)cc2)[nH]1` [Compound B57], the “Fold-Synergistic 1a (Q30E)” value is recorded as >100 fold.

In the case of `CC(C)(C)[C@H](NC(=O)C(C)(C)C1(O)CCC(F)(F)CC1)c1ncc(-c2ccc(-c3ccc4nc([C@@H](NC(=O)C(C)(C)C5(O)CCC(F)(F)CC5)C(C)(C)C)[nH]c4c3)cc2)[nH]1` [Compound B58A], the “Fold-Synergistic 1a (Q30E)” value is given as >100 fold.

As to `CC(C)(C)[C@H](NC(=O)C1(C2(O)CCC(F)(F)CC2)CC1)c1ncc(-c2ccc(-c3ccc4nc([C@@H](NC(=O)C5(C6(O)CCC(F)(F)CC6)CC5)C(C)(C)C)[nH]c4c3)cc2)[nH]1` [Compound B58B], the “Fold-Synergistic 1a (Q30E)” value is reported as >100 fold.

As for `CC(C)(C)[C@H](NC(=O)C1CCC(F)(F)CC1)c1ncc(-c2ccc(-c3ccc4nc([C@@H](NC(=O)C5CCC(F)(F)CC5)C(C)(C)C)[nH]c4c3)cc2)[nH]1` [Compound B58], the “Fold-Synergistic 1a (Q30E)” value is >100 fold.

As to `CC(C)(C)[C@H](NC(=O)C1CCC(F)(F)CC1)c1ncc(-c2cc3cc4oc(-c5cnc([C@@H](NC(=O)C6CCC(F)(F)CC6)C(C)(C)C)[nH]5)cc4cc3o2)[nH]1` [Compound B59], the “Fold-Synergistic 1a (Q30E)” value was >100 fold.

`CC(C)(C)[C@H](NC(=O)C1CCC(F)(F)CC1)c1ncc(C#Cc2ccc(C#Cc3cnc([C@@H](NC(=O)C4CCC(F)(F)CC4)C(C)(C)C)[nH]3)cc2)[nH]1` [Compound B60]: the “Fold-Synergistic 1a (Q30E)” value is >100 fold.

In the case of `CC(C)(C)[C@H](NC(=O)C1CCC(F)(F)CC1)c1ncc(-c2ccc(-c3cc4ccc(-c5cnc([C@@H](NC(=O)C6CCC(F)(F)CC6)C(C)(C)C)[nH]5)cc4o3)cc2)[nH]1` [Compound B61], the “Fold-Synergistic 1a (Q30E)” value was >100 fold.

As for `CC(C)(C)C(=O)N[C@H](c1ncc(-c2ccc(-c3cc4ccc(-c5cnc([C@@H](NC(=O)C(C)(C)C)C(C)(C)C)[nH]5)cc4o3)cc2)[nH]1)C(C)(C)C.O=C(O)C(F)(F)F` [Compound B62], the “Fold-Synergistic 1a (Q30E)” value is >10 fold.

Take `COC(=O)N(C)C1(C(=O)N[C@H](c2ncc(-c3ccc(-c4cc5ccc(-c6cnc([C@@H](NC(=O)C7(N(C)C(=O)OC)CC7)C(C)(C)C)[nH]6)cc5o4)cc3)[nH]2)C(C)(C)C)CC1.O=C(O)C(F)(F)F` [Compound B63]: the “Fold-Synergistic 1a (Q30E)” value is on record as >10 fold.

Consider `CC(C)(C)[C@H](NC(=O)C1CCC(F)(F)CC1)c1ncc(C#Cc2ccc3cc(C#Cc4cnc([C@@H](NC(=O)C5CCC(F)(F)CC5)C(C)(C)C)[nH]4)ccc3c2)[nH]1` [Compound B65], for which the “Fold-Synergistic 1a (Q30E)” value is >100 fold.

With `CC(C)(C)[C@H](NC(=O)C1CCC(F)(F)CC1)c1ncc(C#CC#Cc2cnc([C@@H](NC(=O)C3CCC(F)(F)CC3)C(C)(C)C)[nH]2)[nH]1` [Compound B66], the “Fold-Synergistic 1a (Q30E)” value is >10 fold.

Consider `CC1([C@H](NC(=O)C2CCC(F)(F)CC2)c2nc3ccc(C#Cc4ccc5nc([C@@H](NC(=O)C6CCC(F)(F)CC6)C6(C)CC6)[nH]c5c4)cc3[nH]2)CC1` [Compound B67], for which the “Fold-Synergistic 1a (Q30E)” value is reported as >100 fold.

Regarding `CC1([C@H](NC(=O)C(C)(C)C(C)(C)O)c2nc3ccc(C#Cc4ccc5nc([C@@H](NC(=O)C(C)(C)C(C)(C)O)C6(C)CC6)[nH]c5c4)cc3[nH]2)CC1` [Compound B68], the “Fold-Synergistic 1a (Q30E)” value is listed as >100 fold.

With `CC(C)(C)[C@H](NC(=O)C(C)(C)C(C)(C)O)c1ncc(-c2ccc(-c3ccc(-c4cnc([C@@H](NC(=O)C(C)(C)C(C)(C)O)C(C)(C)C)[nH]4)cc3)cc2)[nH]1` [Compound B69], the “Fold-Synergistic 1a (Q30E)” value is given as >100 fold.

For the molecule `CC(C)(C(=O)N[C@H](c1ncc(-c2ccc(-c3ccc(-c4cnc([C@@H](NC(=O)C(C)(C)C5CCCC5)C(C)(C)C)[nH]4)cc3)cc2)[nH]1)C(C)(C)C)C1CCCC1` [Compound B82], the “Fold-Synergistic 1a (Q30E)” value is given as >100 fold.

Take `CN(C)C(=N[C@H](c1ncc(-c2ccc(-c3ccc(-c4cnc([C@@H](NC(=O)C(C)(C)C5CCCC5)C(C)(C)C)[nH]4)cc3)cc2)[nH]1)C(C)(C)C)N(C)C` [Compound B83]: the “Fold-Synergistic 1a (Q30E)” value is on record as >100 fold.

Take `CC(C)(C)[C@H](NC(=O)C1(C2(O)CCNCC2)CCC1)c1ncc(-c2ccc(-c3ccc(-c4cnc([C@@H](NC(=O)C5(C6(O)CCOCC6)CCC5)C(C)(C)C)[nH]4)cc3)cc2)[nH]1` [Compound B84]: the “Fold-Synergistic 1a (Q30E)” value was >100 fold.

As for `CN(C)C(=N[C@H](c1ncc(-c2ccc(-c3ccc(-c4cnc([C@@H](NC(=O)C5(C6(O)CCNCC6)CCC5)C(C)(C)C)[nH]4)cc3)cc2)[nH]1)C(C)(C)C)N(C)C` [Compound B85], the “Fold-Synergistic 1a (Q30E)” value is listed as >10 fold.

For the molecule `CC(C)(C(=O)N[C@H](c1ncc(-c2ccc(-c3ccc(-c4cnc([C@@H](NC(=O)C(C)(C)C5=CCCCC5)C(C)(C)C)[nH]4)cc3)cc2)[nH]1)C(C)(C)C)C1=CCCCC1` [Compound B86], the “Fold-Synergistic 1a (Q30E)” value was >100 fold.

With `CN(C)C(=N[C@H](c1ncc(-c2ccc(-c3ccc(-c4cnc([C@@H](NC(=O)C(C)(C)C5=CCCCC5)C(C)(C)C)[nH]4)cc3)cc2)[nH]1)C(C)(C)C)N(C)C` [Compound B87], the “Fold-Synergistic 1a (Q30E)” value was >100 fold.
